This passage reports GI50 results from patent publication US20240262795A1, “PYRAZINE COMPOUNDS AS INHIBITORS OF FLT3” (Biomea Fusion, Inc., priority 2021, published 2024).

The experiment has as its target T1, Ba/F3 cell lines stably expressing human FLT3-ITD-F691L (Homo sapiens, UniProt P36888, F691L, cells depend on it, form not given).
T1 construct: Ba/F3-FLT3-ITD-F691L Relative IC50
T1 sequence (P36888 1-993 F691L): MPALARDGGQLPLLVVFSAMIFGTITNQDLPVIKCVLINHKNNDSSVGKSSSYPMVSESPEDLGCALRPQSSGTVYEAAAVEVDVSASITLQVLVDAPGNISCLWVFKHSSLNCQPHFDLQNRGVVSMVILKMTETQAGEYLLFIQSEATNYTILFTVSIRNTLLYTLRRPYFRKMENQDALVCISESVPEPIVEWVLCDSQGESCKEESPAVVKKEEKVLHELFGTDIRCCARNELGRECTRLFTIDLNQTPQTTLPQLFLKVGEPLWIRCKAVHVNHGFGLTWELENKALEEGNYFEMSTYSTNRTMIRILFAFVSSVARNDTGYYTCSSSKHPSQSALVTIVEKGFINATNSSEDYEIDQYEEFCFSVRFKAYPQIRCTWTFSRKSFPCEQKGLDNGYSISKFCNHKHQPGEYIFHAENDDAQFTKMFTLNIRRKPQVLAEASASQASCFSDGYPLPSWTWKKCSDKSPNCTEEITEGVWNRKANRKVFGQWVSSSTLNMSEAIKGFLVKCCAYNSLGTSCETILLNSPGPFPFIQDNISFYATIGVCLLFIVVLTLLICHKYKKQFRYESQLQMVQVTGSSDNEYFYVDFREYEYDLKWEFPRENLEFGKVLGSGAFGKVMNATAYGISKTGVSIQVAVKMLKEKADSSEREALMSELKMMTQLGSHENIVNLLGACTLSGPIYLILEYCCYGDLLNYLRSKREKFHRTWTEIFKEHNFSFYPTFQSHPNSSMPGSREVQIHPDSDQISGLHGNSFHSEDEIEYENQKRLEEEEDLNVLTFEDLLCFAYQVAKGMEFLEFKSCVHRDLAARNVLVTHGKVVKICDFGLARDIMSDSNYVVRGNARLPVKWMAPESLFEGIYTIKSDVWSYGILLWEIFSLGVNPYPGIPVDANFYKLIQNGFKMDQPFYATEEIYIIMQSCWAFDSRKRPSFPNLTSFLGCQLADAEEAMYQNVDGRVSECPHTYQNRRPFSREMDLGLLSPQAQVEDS
As to the kind of experiment: FLT3 mutant assay, cell viability, Ba/F3-FLT3-ITD-F691L. The conditions noted are these: IC50 (3 days), CellTiter-Glo; read-out: Ba/F3-FLT3-ITD-F691L Relative IC50. It is filed as cell-based, mouse. Here is the method: Activity of compounds on FLT3 activating mutations were assessed using Ba/F3 cell lines (mouse pro-B cell line) stably expressing human FLT3-ITD, FLT3-ITD-D835Y or FLT3-ITD-F691L. […] The supernatant collected were concentrated with PEG8000 and used to infect Ba/F3 cells at 1-5 MOI in serum-free media with polybrene. Infected Ba/F3 cells were selected in presence of puromycin, and surviving cells verified by sequencing and/or protein detection assay. Constitutive expression of the activating kinase transforms the Ba/F3 cells into IL-3-independent growth allowing them to be cultured in the absence of IL-3. […] For use in compound testing, cells in exponential growth phase were harvested, counted, and resuspended at the required cell density. Cell viability assays were performed in 96-well assay plates and 90 μL of cell suspension seeded per well. Serial dilutions of the test compounds and assay controls and were freshly prepared for the assay. Nine-point 3× serial dilutions were prepared in 100% DMSO (400× stock) and subsequently diluted in cell culture media to obtain 10× stocks. Ten microliters of the 10× stock serial dilutions were added to the appropriate wells (triplicate wells per condition) in the assay plate. […] Assay plates were incubated for 3 days in at 37° C. in a humidified incubator with 5% CO2.
Inhibition rate (IR) of the tested compounds was determined by the following formula: IR (%)=(1−(RLU compound−RLU blank)/(RLU control−RLU blank))*100%. The inhibitions of different dose of compound were calculated in Excel file, and the dose responses were analysed using GraphPad Prism to evaluate related parameters, such as Bottom, Top and IC50. For the IC50 analysis by GraphPad Prism, the equation below was used to fit curve: Y=Bottom+(Top−Bottom)/(1+10^((LogIC50−X)*HillSlope))
In general terms: Cellular ATP, detected with luciferase, serves as a proxy for viable cell number.

Each structure is given as a SMILES string.

As to `CCc1nc(C(N)=O)c(Nc2cccc(CCNC(=O)[C@H](C)N(C)C(=O)/C=C/CN(C)C)c2)nc1N(C)C(C)C` [Compound 204, (S,E)-3-((3-(2-(2-(4-(dimethylamino)-N-methylbut-2-enamido)propanamido)ethyl)phenyl)amino)-6-ethyl-5-(isopropyl(methyl)amino)pyrazine-2-carboxamide], the GI50 lay within 1 to 10 nM.
In the case of `CCc1nc(C(N)=O)c(Nc2cccc(CCNC(=O)[C@H](C)N(C)C(=O)/C=C/CN(C)C)c2)nc1NC(C)C` [Compound 205, (S,E)-3-((3-(2-(2-(4-(dimethylamino)-N-methylbut-2-enamido)propanamido)ethyl)phenyl)amino)-6-ethyl-5-(isopropylamino)pyrazine-2-carboxamide] it was 1 to 10 nM; in that of `CCc1nc(C(N)=O)c(Nc2cccc(CCNC(=O)CN(C)C(=O)/C=C/CN(C)C)c2)nc1C1CC1` [Compound 219, (E)-5-cyclopropyl-3-((3-(2-(2-(4-(dimethylamino)-N-methylbut-2-enamido)acetamido)ethyl)phenyl)amino)-6-ethylpyrazine-2-carboxamide], 1 to 10 nM.
The same measure for `Cc1nc(C(N)=O)c(Nc2cccc(CCNC(=O)[C@H](C)N(C)C(=O)/C=C/CN(C)C)c2)nc1N(C)C(C)C` [Compound 232, (S, E)-3-((3-(2-(2-(4-(dimethylamino)-N-methylbut-2-enamido)propanamido)ethyl)phenyl)amino)-5-(isopropyl (methyl)amino)-6-methylpyrazine-2-carboxamide]: 1 to 10 nM; for `Cc1nc(C(N)=O)c(Nc2cccc(CCNC(=O)CN(C)C(=O)/C=C/CN(C)C)c2)nc1N(C)C(C)C` [Compound 250, (E)-3-((3-(2-(2-(4-(dimethylamino)-N-methylbut-2-enamido)acetamido)ethyl)phenyl)amino)-5-(isopropyl(methyl)amino)-6-methylpyrazine-2-carboxamide]: 1 to 10 nM.
As to `CCc1nc(C(N)=O)c(Nc2cccc(CCNC(=O)CN(C)C(=O)/C=C/CN(C)C)c2)nc1N(C)CC` [Compound 252, (E)-3-((3-(2-(2-(4-(dimethylamino)-N-methylbut-2-enamido)acetamido)ethyl)phenyl)amino)-6-ethyl-5-(ethyl (methyl)amino) pyrazine-2-carboxamide], the GI50 is 1 to 10 nM.
In the case of `CCc1nc(C(N)=O)c(Nc2cccc(CCNC(=O)[C@H](C)N(C)C(=O)/C=C/CNC)c2)nc1N(C)C(C)C` [Compound 307, (S,E)-6-ethyl-5-(isopropyl(methyl)amino)-3-((3-(2-(2-(N-methyl-4-(methylamino)but-2-enamido)propanamido)ethyl)phenyl)amino)pyrazine-2-carboxamide] it was 10 to 100 nM.
The same measure for `CCc1nc(C(N)=O)c(Nc2ccnc(CCNC(=O)[C@H](C)N(C)C(=O)/C=C/CN(C)C)c2)nc1C1CC1` [Compound 310, (S,E)-5-cyclopropyl-3-((2-(2-(2-(4-(dimethylamino)-N-methylbut-2-enamido)propanamido)ethyl)pyridin-4-yl)amino)-6-ethylpyrazine-2-carboxamide]: 10 to 100 nM.
With `CCc1nc(C(N)=O)c(Nc2cccc([C@@H](C)CNC(=O)CN(C)C(=O)/C=C/CN(C)C)c2)nc1C1CC1` [Compound 504, (R,E)-5-cyclopropyl-3-((3-(1-(2-(4-(dimethylamino)-N-methylbut-2-enamido)acetamido)propan-2-yl)phenyl)amino)-6-ethylpyrazine-2-carboxamide], the GI50 was in the range of 1 to 10 nM.
For the molecule `CCc1nc(C(N)=O)c(Nc2cccc([C@@H](C)CNC(=O)CN(C)C(=O)/C=C/CN3CCC3)c2)nc1C1CC1` [Compound 506, (R,E)-3-((3-(1-(2-(4-(azetidin-1-yl)-N-methylbut-2-enamido)acetamido)propan-2-yl)phenyl)amino)-5-cyclopropyl-6-ethylpyrazine-2-carboxamide], the GI50 fell in the range of 1 to 10 nM.
The same measure for `CCCc1nc(Nc2cccc([C@@H](C)CNC(=O)CN(C)C(=O)/C=C/CN3CCC3)c2)c(C(N)=O)nc1CC` [Compound 507, (R,E)-3-((3-(1-(2-(4-(azetidin-1-yl)-N-methylbut-2-enamido)acetamido)propan-2-yl)phenyl)amino)-6-ethyl-5-propylpyrazine-2-carboxamide]: 1 to 10 nM; for `CCc1nc(Nc2cccc([C@@H](C)CNC(=O)CN(C)C(=O)/C=C/CN3CCC3)c2)c(C(N)=O)nc1CC` [Compound 508, (R, E)-3-((3-(1-(2-(4-(azetidin-1-yl)-N-methylbut-2-enamido)acetamido)propan-2-yl)phenyl)amino)-5,6-diethylpyrazine-2-carboxamide]: 1 to 10 nM.
The same measure for `CCc1nc(C(N)=O)c(Nc2cc(F)cc(CCNC(=O)CN(C)C(=O)/C=C/CN3CCC3)c2)nc1C1CC1` [Compound 516, (E)-3-((3-(2-(2-(4-(azetidin-1-yl)-N-methylbut-2-enamido)acetamido)ethyl)-5-fluorophenyl)amino)-5-cyclopropyl-6-ethylpyrazine-2-carboxamide]: 10 to 100 nM; for `CCc1nc(C(N)=O)c(Nc2cccc(CCNC(=O)CN(C)C(=O)/C=C/CN3CCC3)c2)nc1N(C)CC` [Compound 516A, (E)-3-((3-(2-(2-(4-(azetidin-1-yl)-N-methylbut-2-enamido)acetamido)ethyl)phenyl)amino)-6-ethyl-5-(ethyl(methyl)amino) pyrazine-2-carboxamide]: 1 to 10 nM.
Consider `CCc1nc(C(N)=O)c(Nc2cccc([C@@H](C)CNC(=O)CN(C)C(=O)/C=C/CN3CCC3)c2)nc1N(C)CC` [Compound 518, (R,E)-3-((3-(1-(2-(4-(azetidin-1-yl)-N-methylbut-2-enamido)acetamido)propan-2-yl)phenyl)amino)-6-ethyl-5-(ethyl(methyl)amino)pyrazine-2-carboxamide], for which the GI50 lay in the range of 1 to 10 nM.
In the case of `CCOc1nc(Nc2cccc(CCNC(=O)CN(C)C(=O)/C=C/CN3CCC3)c2)c(C(N)=O)nc1CC` [Compound 602, (E)-3-((3-(2-(2-(4-(azetidin-1-yl)-N-methylbut-2-enamido)acetamido)ethyl)phenyl)amino)-5-ethoxy-6-ethylpyrazine-2-carboxamide] it was 1 to 10 nM; in that of `CCc1nc(C(N)=O)c(Nc2cccc(CCNC(=O)CN(C)C(=O)/C=C/CN3CCC3)c2)nc1OC(C)C` [Compound 603, (E)-3-((3-(2-(2-(4-(azetidin-1-yl)-N-methylbut-2-enamido)acetamido)ethyl)phenyl)amino)-6-ethyl-5-isopropoxypyrazine-2-carboxamide], 10 to 100 nM.
Take `CCc1nc(C(N)=O)c(Nc2ccnc(CCNC(=O)[C@H](C)N(C)C(=O)/C=C/CN(C)C)c2)nc1N(C)C(C)C` [Compound 605, (S, E)-3-((2-(2-(2-(4-(dimethylamino)-N-methylbut-2-enamido)propanamido)ethyl)pyridin-4-yl)amino)-6-ethyl-5-(isopropyl (methyl)amino) pyrazine-2-carboxamide]: the GI50 fell in the range of 10 to 100 nM.
The same measure for `CCc1nc(C(N)=O)c(Nc2ccc(N3CCC(N4CCN(C)CC4)CC3)c(OC)c2)nc1NC1CCOCC1` [Gilteritinib, gilteritinib, reference compound]: 10 to 100 nM.
